In patent publication US10827754B2, “Fungicidal composition comprising a pyridylethylbenzamide derivative and a compound capable of inhibiting the ergosterol biosynthesis” (BAYER INTELLECTUAL PROPERTY GMBH, priority 2004, dated 2020):

Tests used:
Assay type in all cases: in vivo
Puccinia recondita [1] = assay: Example 8: efficacy against Puccinia recondita on wheat plants, formulated compounds; conditions: 240 h, alone, grading 10 days after contamination
Protocol: (§1) The formulated compounds are diluted with water to obtain the desired active material concentration Wheat plants (Scipion variety) in starter cups, sown on 50/50 peat soil-pozzolana substrate and grown at 12° C., are treated at the 1-leaf stage (10 cm tall) by spraying with the aqueous suspension described above.
(§2) Plants, used as controls, are treated with an aqueous solution not containing the active material.
(§3) After 24 hours, the plants are contaminated by spraying the leaves with an aqueous suspension of Puccinia recondita spores (100,000 spores per ml). The spores are collected from a 10-day-old contaminated wheat and are suspended in water containing 2.5 ml/l of tween 80 10%. The contaminated wheat plants are incubated for 24 hours at 20° C. and at 100% relative humidity, and then for 10 days at 20° C. and at 70% relative humidity. Grading is carried out 10 days after the contamination, in comparison with the control plants.

Botrytis cinerea [2] = assay: Example 16: efficacy against Botrytis cinerea on gherkin plants, formulated compounds; conditions: alone, grading 5 to 7 days after contamination
Protocol: (§4) The formulated compounds are diluted with water to obtain the desired active material concentration.
(§5) Gherkin plants (Petit vert de Paris variety) in starter cups, sown on a 50/50 peat soil-pozzolana substrate and grown at 18-20° C., are treated at the cotyledon Z11 stage by spraying with the aqueous suspension described above. Plants, used as controls, are treated with an aqueous solution not containing the active material.
(§6) After 24 hours, the plants are contaminated by depositing drops of an aqueous suspension of Botrytis cinerea spores (150,000 spores per ml) on upper surface of the leaves. The spores are collected from a 15-day-old culture and are suspended in a nutrient solution composed of: • 20 g/L of gelatine • 50 g/L of cane sugar • 2 g/L of NH4NO3 • 1 g/L of KH2PO4
(§7) The contaminated gherkin plants are settled for 5/7 days in a climatic room at 15-11° C. (day/night) and at 80% relative humidity. Grading (% of efficacy) is carried out 5 to 7 days after the contamination, in comparison with the control plants.

[3] = test system: Erysiphe graminis f sp. tritici; assay: Example 7: efficacy against Erysiphe graminis on wheat plants, formulated compounds; conditions: Blumeria graminis, alone, grading 7 to 14 days after contamination
Protocol: as §1, with “concentration.” for “concentration”, “(Audace” for “(Scipion”
as §2
After 24 hours, the plants are contaminated by dusting them with Erysiphe graminis f sp. tritici spores, the dusting being carried out using diseased plants. Grading is carried out 7 to 14 days after the contamination, in comparison with the control plants.

Botrytis cinerea [4] = assay: Example 5: efficacy against Botrytis cinerea on gherkin plants; conditions: alone, grading 5 to 7 days after contamination
Protocol: (§8) The active ingredients tested are prepared by potter homogenisation in a mixture of acetone/tween/water. This suspension is then diluted with water to obtain the desired active material concentration.
as §5, §6, §7

[5] = test system: Erysiphe graminis f sp. tritici; assay: Example 4: efficacy against Erysiphe graminis on wheat plants, formulated compounds; conditions: Blumeria graminis, alone, grading 7 to 14 days after contamination
Protocol: as §1, with “formulated (concentrated suspension)” for “formulated”, “(Audace” for “(Scipion”
as §2
(§9) After 24 hours, the plants are contaminated by dusting them with Erysiphe graminis f sp. tritici spores, the dusting being carried out using diseased plants.
(§10) Grading is carried out 7 to 14 days after the contamination, in comparison with the control plants.

Sphaerotheca fuliginea = assay: Example 11: efficacy against Sphaerotheca fuliginea on gherkin plants, formulated compounds; conditions: Podosphaera fuliginea, 504 h, alone, grading 21 days after contamination
Protocol: (§11) The formulated compounds are diluted with water to obtain the desired active material concentration
as §5, with “(Vert petit” for “(Petit vert”, “20° C./23°” for “18-20°”, “2-leaves” for “cotyledon Z11”
After 24 hours, the plants are contaminated by spraying them with an aqueous suspension of Sphaerotheca fuliginea spores (100 000 spores per ml). The spores are collected from a contaminated plants. The contaminated gerkhin plants are incubated at about 20° C./25° C. and at 60/70% relative humidity.
Grading (% of efficacy) is carried out 21 days after the contamination, in comparison with the control plants.

[6] = test system: Erysiphe graminis f sp. tritici; assay: Example 2: efficacy against Erysiphe graminis on wheat plants, spray 24 h before contamination; conditions: Blumeria graminis, alone, grading 7 to 14 days after contamination
Protocol: as §8
Wheat plants (Audace variety) in starter cups, sown on 50/50 peat soil-pozzolana substrate and grown at 12° C., are treated at the 1-leaf stage (10 cm tall) by spraying with the aqueous suspension described above.
as §2, §9, §10

[7] = test system: Mycosphaerella graminicola; assay: Example 1: efficacy against Mycosphaerella graminicola on wheat plants, spray 24 h before contamination; conditions: Zymoseptoria tritici, alone, grading 21 to 28 days after contamination
Protocol: as §8
(§12) Wheat plants (Scipion variety), sown on a 50/50 peat soil-pozzolana substrate in starter cups and grown at 12° C., are treated at the 1-leaf stage (10 cm tall) by spraying with the aqueous suspension described above. Plants, used as controls, are treated with an aqueous solution not containing the active material.
(§13) After 24 hours, the plants are contaminated by spraying them with an aqueous suspension of Mycosphaerella graminicola spores (500 000 spores per ml). The spores are collected from a 7-day-old culture. The contaminated wheat plants are incubated for 72 hours at 18° C. and at 100% relative humidity, and then for 21 to 28 days at 90% relative humidity.
(§14) Grading (% of efficacy) is carried out 21 to 28 days after the contamination, in comparison with the control plants.

[8] = test system: Erysiphe graminis f sp. tritici; assay: Example 17: efficacy against Erysiphe graminis on wheat plants, formulated compounds; conditions: Blumeria graminis, alone, grading 7 to 14 days after contamination
Protocol: as §1, with “compounds (Compound 1 and a mix of spiroxamine (300 g/l) and prothioconazole (160 g/l)” for “compounds”, “(Audace” for “(Scipion”
as §2, §9, §10

Botrytis cinerea [9] = assay: Example 13: efficacy against Botrytis cinerea on gherkin plants, formulated compounds; conditions: alone, grading 5 to 7 days after contamination
Protocol: as §4, §5, §6, §7

Botrytis cinerea [10] = assay: Example 15: efficacy against Botrytis cinerea on gherkin plants, formulated compounds; conditions: read-out: % Efficacy
Protocol: as §4, §5, §6, §7

[11] = test system: Mycosphaerella graminicola; assay: Example 12: efficacy against Mycosphaerella graminicola on wheat plants, formulated compounds; conditions: Zymoseptoria tritici
Protocol: as §11, §12, §13, §14

Puccinia recondita [12] = assay: Example 10: efficacy against Puccinia recondita on wheat plants; conditions: 240 h, alone, grading 10 days after contamination
Protocol: as §8
Wheat plants (Scipion variety) in starter cups, sown on 50/50 peat soil-pozzolana substrate and grown at 12° C., are treated at the 1-leaf stage (10 cm tall) by spraying with the aqueous suspension described above.
as §2, §3

[13] = test system: Erysiphe graminis f sp. tritici; assay: Example 14: efficacy against Erysiphe graminis on wheat plants, formulated compounds; conditions: Blumeria graminis, alone, grading 7 to 14 days after contamination
Protocol: as §1, with “(Audace” for “(Scipion”
as §2, §9, §10

Botrytis cinerea [14] = assay: Example 9: efficacy against Botrytis cinerea on gherkin plants, formulated compounds; conditions: alone, grading 5 to 7 days after contamination
Protocol: as §4, §5, §6, §7

Botrytis cinerea [15] = assay: Example 3: efficacy against Botrytis cinerea on gherkin plants, spray 24 h before contamination; conditions: alone, grading 5 to 7 days after contamination
Protocol: as §8, §5, §6, §7

Botrytis cinerea [16] = assay: Example 6: efficacy against Botrytis cinerea on gherkin plants; conditions: alone, grading 5 to 7 days after contamination
Protocol: as §8, §5, §6, §7

Compound: Fc1ccc([C@]2(Cn3cncn3)O[C@H]2c2ccccc2Cl)cc1 (racemic) [Epoxiconazole, reference compound]
- Emax at 15.6 g/ha (Puccinia recondita [1]; dose 15.6 g/ha): 25%

Compound: CC(C)(C)C(O)C(Oc1ccc(-c2ccccc2)cc1)n1cncn1 (stereo not drawn) [Bitertanol, reference compound]
- Emax at 333 ppm (Botrytis cinerea [2]; dose 333 ppm): 0%

Compound: O=C(NCCc1ncc(C(F)(F)F)cc1Cl)c1ccccc1C(F)(F)F [Compound 1, N-{2-[3-chloro-5-(trifluoromethyl)-2-pyridinyl]ethyl}-2-trifluoromethylbenzamide]
- Emax at 250 g/ha ([3]; dose 250 g/ha): 40%
- Emax at 37 ppm (Botrytis cinerea [4]; dose 37 ppm): 0%
- Emax at 111 ppm (Botrytis cinerea [4]): 80%
- Emax at 62.5 g/ha ([5]; dose 62.5 g/ha): 10%
- Emax at 4.1 ppm (Sphaerotheca fuliginea; dose 4.1 ppm): 28%
- Emax at 62.5 g/ha ([6]; dose 62.5 g/ha): 0%
- Emax at 125 g/ha [6]: 20%
- Emax at 15 g/ha [7]: 25%
- Emax at 31 g/ha [7]: 65%
- Emax at 125 g/ha [8]: 0%
- Emax at 31.2 g/ha (Botrytis cinerea [9]; dose 31.2 g/ha): 20%
- Emax at 62.5 g/ha (Botrytis cinerea [9]): 30%
- Emax at 37 ppm (Botrytis cinerea [10]; dose 37 ppm, alone, gherkin, grading 5 to 7 days after contamination): 50%
- Emax at 62.5 g/ha ([11]; dose 62.5 g/ha, alone, wheat, grading 21 to 28 days after contamination): 77%
- Emax at 250 g/ha (Puccinia recondita [12]): 0%
- Emax at 500 g/ha ([13]; dose 500 g/ha): 44%
- Emax at 12.3 ppm (Botrytis cinerea [14]; dose 12.3 ppm): 0%
- Emax at 37 ppm (Botrytis cinerea [14]; dose 37 ppm): 50%
- Emax at 12 ppm (Botrytis cinerea [15]; dose 12 ppm): 0%
- Emax at 37 ppm (Botrytis cinerea [15]): 30%
- Emax at 111 ppm (Botrytis cinerea [15]): 80%
- Emax at 62.5 g/ha (Puccinia recondita [1]; dose 62.5 g/ha): 0%
- Emax at 250 g/ha (Puccinia recondita [1]; dose 250 g/ha): 0%
- Emax at 4 ppm (Botrytis cinerea [16]; dose 4 ppm): 10%
- Emax at 12.3 ppm (Botrytis cinerea [2]; dose 12.3 ppm): 5%

Compound: CC(C1CC1)C(O)(Cn1cncn1)c1ccc(Cl)cc1 (stereo not drawn) [Cyproconazole, reference compound]
- Emax at 31.2 g/ha ([5]; dose 31.2 g/ha): 15%

Compound: CC1COC(Cn2cncn2)(c2ccc(Oc3ccc(Cl)cc3)cc2Cl)O1 (stereo not drawn) [Difenconazole, reference compound]
- Emax at 111 ppm (Botrytis cinerea [4]): 15%
- Emax at 333 ppm (Botrytis cinerea [4]; dose 333 ppm): 25%

Compound: CC1(C(=O)Nc2ccc(O)c(Cl)c2Cl)CCCCC1 [Fenhexamid, reference compound]
- Emax at 37 ppm (Sphaerotheca fuliginea; dose 37 ppm): 35%

Compound: CC(Cc1ccc(C(C)(C)C)cc1)CN1C[C@@H](C)O[C@@H](C)C1 (stereo partly drawn) [Fenpropimorph, reference compound]
- Emax at 62.5 g/ha (Botrytis cinerea [9]): 10%
- Emax at 125 g/ha (Botrytis cinerea [9]; dose 125 g/ha): 30%

Compound: CCCCC(O)(Cn1cncn1)c1ccc(Cl)cc1Cl (stereo not drawn) [Hexaconazole, reference compound]
- Emax at 111 ppm (Botrytis cinerea [16]; dose 111 ppm): 15%

Compound: CC1(C)CCC(Cc2ccc(Cl)cc2)C1(O)Cn1cncn1 (stereo not drawn) [Metconazole, reference compound]
- Emax at 31.2 g/ha ([3]; dose 31.2 g/ha): 50%

Compound: CCCCC(C#N)(Cn1cncn1)c1ccc(Cl)cc1 (stereo not drawn) [Myclobutanil, reference compound]
- Emax at 333 ppm (Botrytis cinerea [14]; dose 333 ppm): 0%

Compound: CCCN(CCOc1c(Cl)cc(Cl)cc1Cl)C(=O)n1ccnc1 [Prochloraz, reference compound]
- Emax at 250 g/ha ([11]; read-out: % Efficacy): 54%

Compound: CCCC1COC(Cn2cncn2)(c2ccc(Cl)cc2Cl)O1 (stereo not drawn) [Propiconazole, reference compound]
- Emax at 37 ppm (Botrytis cinerea [15]): 30%
- Emax at 111 ppm (Botrytis cinerea [15]): 50%
- Emax at 333 ppm (Botrytis cinerea [15]; dose 333 ppm): 70%

Compound: OC(Cc1ccccc1Cl)(Cn1nc[nH]c1=S)C1(Cl)CC1 (stereo not drawn) [Prothioconazole, reference compound]
- Emax at 125 g/ha [6]: 0%
- Emax at 250 g/ha ([6]; dose 250 g/ha): 60%

Compound: CCCN(CC)CC1COC2(CCC(C(C)(C)C)CC2)O1 (stereo not drawn) [Spiroxamine, reference compound]
- Emax at 125 g/ha ([13]; dose 125 g/ha): 0%

Compound: CC(C)(C)C(O)(CCc1ccc(Cl)cc1)Cn1cncn1 (stereo not drawn) [Tebuconazole, reference compound]
- Emax at 15 g/ha [7]: 15%
- Emax at 31 g/ha [7]: 15%

Compound: CC(C)(C)C(O)C(Oc1ccc(Cl)cc1)n1cncn1 (stereo not drawn) [Triadimenol, reference compound]
- Emax at 250 g/ha (Puccinia recondita [12]): 50%

Compound: O=CNC(N1CCN(C(NC=O)C(Cl)(Cl)Cl)CC1)C(Cl)(Cl)Cl (stereo not drawn) [Triforine]
- Emax at 37 ppm (Botrytis cinerea [10]): 0%
- Emax at 111 ppm (Botrytis cinerea [10]): 15%
